Source: patent US20040235932A1, “Ophthalmic pharmaceutical compositions” (priority 2001, published 2004)
Entries after “also recorded” stand apart in the source; their conditions may differ.

Assays:
[1] = tested on: patients suffering from ocular hypertension; settings: cited from earlier work
[2] = tested on: Dutch male colored rabbits; experiment: Activity to reduce intraocular pressure on continuous eye drop administration in rabbits; assay type: in vivo, rabbit; settings: for Difference in intraocular pressure after the administration: test eye vs control eye, mean±S.E.; for time of maximum reduction in intraocular pressure after the administration: all determination days to the 57th day
Experimental: KRG-3332 as prepared in Reference Example 2 was dissolved in physiological saline to prepare a 0.01% solution, which was used as test solution 1 (0.01% eye drop) in the following method for determining the activity to reduce intraocular pressure. […] For the administration of eye drop, each 50 ρL of the test solution and the control (physiological saline) was administered to one eye and the other eye respectively, twice a day (11:00 and 19:00), and the administration continued for up to 57 days. The corneal surfaces of the animals were anaesthetized with 0.4% oxybuprocaine hydrochloride eye drop to, and the intraocular pressure was determined at time points of 11:00 (before the administration), 13:00(2 hours after the administration), 15:00 (4 hours after the administration) and 19:00 (8 hours after the administration, immediately before the second administration) one day before the administration and thereafter every week using an air applanation ophthalmotonometer (ALCON JAPAN LTD.). Average (mean±S.E.) of the difference between the intraocular pressures of eyes administered with the test solution and the control as determined at each time point, and the relevant t-test results were estimated. KRG-3332 was dissolved in physiological saline to prepare a 0.1% solution, which was used as test solution 2 (0.1% eye drop) in the determination of the activity to reduce intraocular pressure in a similar manner to above (1). For the comparison, bunazosin hydrochloride was dissolved in physiological saline to prepare a 0.03% solution, which was used as test solution 3 (reference drug, 0.03% eye drop of bunazosin hydrochloride) in the determination of the activity to reduce intraocular pressure in a similar manner to above (1) and (2).

[3] = tested on: patients suffering from primary closed angle glaucoma and ocular hypertension; settings: 0.05% eye drop, continuous administration; cited from earlier work
human variant α1 A-AR = target: T1, human variant α1 A-AR (Homo sapiens, UniProt P35348, A271T); experiment: Effects on expression level of α1 A-AR in CHO cells expressing variant α1 A-AR ([3H]-prazosin binding to membrane fractions); settings: CHO cells expressing variant α1 A-AR cultured 48 hours with test drug 10^−8 M (mixture: each 10^−8 M)
T1 sequence (P35348 1-466 A271T): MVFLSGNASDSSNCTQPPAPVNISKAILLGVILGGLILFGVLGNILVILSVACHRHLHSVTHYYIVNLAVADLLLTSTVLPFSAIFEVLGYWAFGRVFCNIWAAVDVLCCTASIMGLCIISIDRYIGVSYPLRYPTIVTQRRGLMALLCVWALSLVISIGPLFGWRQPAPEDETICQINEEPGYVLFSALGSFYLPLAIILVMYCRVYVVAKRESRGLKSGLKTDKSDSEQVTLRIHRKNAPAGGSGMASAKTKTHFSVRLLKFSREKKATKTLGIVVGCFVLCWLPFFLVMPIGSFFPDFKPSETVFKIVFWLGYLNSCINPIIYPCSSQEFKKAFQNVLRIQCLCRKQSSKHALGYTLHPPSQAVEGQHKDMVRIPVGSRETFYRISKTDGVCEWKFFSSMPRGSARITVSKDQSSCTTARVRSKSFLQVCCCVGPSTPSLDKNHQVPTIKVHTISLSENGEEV
Experimental: The wild or variant α1 A-AR gene was incorporated into mammalian expression vector pCR3 (Invitrogen Inc.) using restriction enzyme EcoRI, and the vector was transfected into CHO cells with Lipofectamin (GIBCO Inc.).
The membrane fractions (about 20 μg protein/tube) were incubated in the presence of [^3 H]-prazosin (NEN Inc.) (30 to 200 μM) at 30° C. for 45 minutes, and then harvested on GF/C filter (Whatman Inc.) using a cell collecting apparatus (m-36T, Brandel Inc.). The filter was washed with 50 mM Tris-HCl buffer (pH7.4) several times, and then the radioactivity bound on the membrane was determined using a liquid scintillation counter. […] The experimental data was analyzed using nonlinear approximate program PRISM (trade mark) (Graphpad Software Inc.) to calculate the expression level of the receptor.

For `COC(=O)[C@H]1[C@H]2C[C@H]3c4[nH]c5ccccc5c4CCN3C[C@@H]2CC[C@@H]1O` [corynanthine, methyl 17α-hydroxyyohimban-16β-carboxylate], the “activity for reducing intraocular pressure” value ([1]; concentrations of 2 to 5% in eye drops) is listed as “demonstrated Lo have an activity for reducing intraocular pressure” and the “development of drug resistance” value ([1]; continued administration for a week) is listed as “the continued administration thereof for a week developed drug resistance”.
In the case of `CCCC(=O)N1CCCN(c2nc(N)c3cc(OC)c(OC)cc3n2)CC1.Cl` [bunazosin hydrochloride, 1-(4-amino-6,7-dimethoxy-2-quinazolinyl)-4-butyrylhexahydro-1H-1,4-diazepin hydrochloride, reference compound], the “development of drug resistance (change in activity to reduce intraocular pressure by continuous administration)” value ([2]; 0.03% eye drop twice a day, up to 29th day, hydrochloride) was “any difference from the eyes administered with the control was hardly observed on the 22nd day; also recorded: any reduction in intraocular pressure was hardly observed on the 22nd day”, the “Difference in intraocular pressure after the administration” value (shortened to “Difference in intraocular pressure”) ([2]; 0.03% eye drop, 1st day, 0 hours after the administration) was 0.700 ± 0.320 mmHg and the “Difference in intraocular pressure” value ([2]; 0.03% eye drop, 1st day, 4 hours after the administration) was −1.700 ± 1.452 mmHg. The “Difference in intraocular pressure” value ([2]; 0.03% eye drop, 1st day, 8 hours after the administration) was 0.150 ± 0.947 mmHg, the “Difference in intraocular pressure” value ([2]; 0.03% eye drop, 8th day, 0 hours after the administration) was 0.600 ± 0.579 mmHg and the “Difference in intraocular pressure” value ([2]; 0.03% eye drop, 8th day, 4 hours after the administration) was −0.950 ± 1.176 mmHg. The “Difference in intraocular pressure” value ([2]; 0.03% eye drop, 8th day, 8 hours after the administration) was −0.350 ± 0.430 mmHg, the “Difference in intraocular pressure” value ([2]; 0.03% eye drop, 15th day, 0 hours after the administration) was 0.100 ± 0.562 mmHg and the “Difference in intraocular pressure” value ([2]; 0.03% eye drop, 15th day, 2 hours after the administration) was −1.450 ± 0.804 mmHg. The “Difference in intraocular pressure” value ([2]; 0.03% eye drop, 15th day, 4 hours after the administration) was −0.250 ± 0.494 mmHg, the “Difference in intraocular pressure” value ([2]; 0.03% eye drop, 15th day, 8 hours after the administration) was −0.100 ± 0.150 mmHg and the “Difference in intraocular pressure” value ([2]; 0.03% eye drop, 22nd day, 0 hours after the administration) was −0.050 ± 0.567 mmHg. The “Difference in intraocular pressure” value ([2]; 0.03% eye drop, 22nd day, 2 hours after the administration) was −0.250 ± 0.576 mmHg, the “Difference in intraocular pressure” value ([2]; 0.03% eye drop, 22nd day, 4 hours after the administration) was −0.200 ± 0.330 mmHg and the “Difference in intraocular pressure” value ([2]; 0.03% eye drop, 22nd day, 8 hours after the administration) was 0.350 ± 0.150 mmHg. The “Difference in intraocular pressure” value ([2]; 0.03% eye drop, 29th day, 0 hours after the administration) was 0.300 ± 1.011 mmHg, the “Difference in intraocular pressure” value ([2]; 0.03% eye drop, 29th day, 2 hours after the administration) was −0.250 ± 0.652 mmHg and the “Difference in intraocular pressure” value ([2]; 0.03% eye drop, 29th day, 4 hours after the administration) was −0.500 ± 0.306 mmHg. For the same molecule, the “Difference in intraocular pressure” value ([2]; 0.03% eye drop, 29th day, 8 hours after the administration) was −0.200 ± 0.289 mmHg, the “attenuation in activity to reduce intraocular pressure” value [3] was “initiate the attenuation in an activity to reduce intraocular pressure after 4-weeks continuous administration” and the “expression level of the α1 A-AR (receptor levels)” value (human variant α1 A-AR) was “induced the increase in the receptor levels about three times compared to the treatment with KRG-3333”.
With `CCOc1ccccc1OCCN[C@H](C)Cc1cc(C(N)=O)c2c(ccn2CCCOC(=O)C(C)(C)C)c1.Cl` [KRG-3332, (R)-3-[7-carbamoyl-5-[2-[[2-(2-ethoxyphenoxy)ethyl]amino]propyl]-1H-indol-1-yl]propyl pivalate hydrochloride] the “development of drug resistance (change in activity to reduce intraocular pressure by continuous administration)” value ([2]; 0.01% and 0.1% eye drops twice a day for up to 57 days) was “no development of drug resistance”, the “Difference in intraocular pressure” value ([2]; 0.01% eye drop, 1st day, 0 hours after the administration) was 0.050 ± 0.398 mmHg and the “Difference in intraocular pressure” value ([2]; 0.01% eye drop, 1st day, 8 hours after the administration) was −0.400 ± 0.392 mmHg. The “Difference in intraocular pressure” value ([2]; 0.01% eye drop, 8th day, 0 hours after the administration) was −0.200 ± 0.242 mmHg, the “Difference in intraocular pressure” value ([2]; 0.01% eye drop, 15th day, 4 hours after the administration) was −1.600 ± 0.882 mmHg and the “Difference in intraocular pressure” value ([2]; 0.01% eye drop, 15th day, 8 hours after the administration) was −0.350 ± 0.828 mmHg. For the same molecule, the “Difference in intraocular pressure” value ([2]; 0.01% eye drop, 22nd day, 0 hours after the administration) was −0.850 ± 0.589 mmHg, the “Difference in intraocular pressure” value ([2]; 0.01% eye drop, 22nd day, 8 hours after the administration) was −0.550 ± 0.348 mmHg and the “Difference in intraocular pressure” value ([2]; 0.01% eye drop, 29th day, 8 hours after the administration) was −0.400 ± 0.392 mmHg. The “Difference in intraocular pressure” value ([2]; 0.01% eye drop, 36th day, 0 hours after the administration) was −0.500 ± 0.447 mmHg, the “Difference in intraocular pressure” value ([2]; 0.01% eye drop, 36th day, 4 hours after the administration) was −1.349 ± 0.831 mmHg and the “Difference in intraocular pressure” value ([2]; 0.01% eye drop, 36th day, 8 hours after the administration) was −1.250 ± 0.818 mmHg. The “Difference in intraocular pressure” value ([2]; 0.01% eye drop, 43rd day, 0 hours after the administration) was −0.150 ± 0.491 mmHg, the “Difference in intraocular pressure” value ([2]; 0.01% eye drop, 43rd day, 8 hours after the administration) was 0.100 ± 0.376 mmHg and the “Difference in intraocular pressure” value ([2]; 0.01% eye drop, 50th day, 0 hours after the administration) was −0.400 ± 0.430 mmHg. For the same molecule, the “Difference in intraocular pressure” value ([2]; 0.01% eye drop, 50th day, 8 hours after the administration) was −0.900 ± 0.551 mmHg, the “Difference in intraocular pressure” value ([2]; 0.01% eye drop, 57th day, 0 hours after the administration) was 0.050 ± 0.366 mmHg and the “Difference in intraocular pressure” value ([2]; 0.01% eye drop, 57th day, 8 hours after the administration) was −0.150 ± 0.400 mmHg. For the same molecule, the “time of maximum reduction in intraocular pressure after the administration” value ([2]; 0.01% eye drop) was 2 h, the “Difference in intraocular pressure” value ([2]; 0.1% eye drop, 1st day, 0 hours after the administration) was 0.000 ± 0.285 mmHg and the “Difference in intraocular pressure” value ([2]; 0.1% eye drop, 8th day, 0 hours after the administration) was −1.050 ± 0.619 mmHg. For the same molecule, the “Difference in intraocular pressure” value ([2]; 0.1% eye drop, 15th day, 0 hours after the administration) was −1.350 ± 0.944 mmHg, the “Difference in intraocular pressure” value ([2]; 0.1% eye drop, 15th day, 8 hours after the administration) was −1.700 ± 0.917 mmHg and the “Difference in intraocular pressure” value ([2]; 0.1% eye drop, 36th day, 0 hours after the administration) was −1.050 ± 0.878 mmHg. The “Difference in intraocular pressure” value ([2]; 0.1% eye drop, 43rd day, 8 hours after the administration) was −2.250 ± 0.862 mmHg, the “Difference in intraocular pressure” value ([2]; 0.1% eye drop, 50th day, 0 hours after the administration) was −0.600 ± 0.801 mmHg and the “Difference in intraocular pressure” value ([2]; 0.1% eye drop, 50th day, 4 hours after the administration) was −1.950 ± 0.756 mmHg. The “Difference in intraocular pressure” value ([2]; 0.1% eye drop, 50th day, 8 hours after the administration) was −1.150 ± 0.573 mmHg, the “Difference in intraocular pressure” value ([2]; 0.1% eye drop, 57th day, 0 hours after the administration) was −1.500 ± 0.822 mmHg and the “time of maximum reduction in intraocular pressure after the administration” value ([2]; 0.1% eye drop) was 2 h.
